Laboratory results taken from US7985538B2, “Drug resistance and methods of reversing” (Yale University, priority 2006, dated 2011).

Key:
A2780 EOC cells = test: Caspase-3/7 activity in A2780 cells, wt or MyD88 transfected, carboplatin versus paclitaxel; format: cell-based, human; conditions: 100 μg/ml carboplatin or 2 μM paclitaxel, 48 hours; for caspase-3/7 activity: wildtype A2780
Description: (§1) Ten μg of protein in a 50 μl total volume was mixed with 50 μl of equilibrated reagents of a caspase assay kit, i.e., the CASPASE GLO™ 3/7 Assay (Promega). After incubating at room temperature for 1 h, luminescence was measured using TD 20/20 Luminometer (Turner Designs, Sunnyvale, Calif.). Blank values were subtracted and fold-increase in activity was calculated based on activity measured from untreated cells. Each sample was measured in triplicate.
Transfection was performed using a plasmid containing the full-length cDNA (SEQ ID NO:3) of human MyD88 (pUNO-hMyD88, Invivogen), which encodes the amino acid sequence of SEQ ID NO:4. CP70 and A2780 cells were grown in […] surface tissue culture flasks until they reached 50% confluence. 12 μl of the Fugene 6 Transfection reagent was added into 4 ml of serum-free media for each transfection. After 5 minutes of incubation at room temperature, 1 μg of the plasmid pUNO-hMyD88 was added to the serum-free media containing Fugene 6 Transfection Reagent, and the mixtures were incubated at room temperature for another 15 minutes. The growth media in each flask was discarded, and the corresponding Fugene 6-plasmid-serum-free-media mixture was added and the flasks were incubated overnight at 37° C. 5% CO2. The transfection media was replaced with fresh growth media the second day and the cells were allowed to recover for 24 hours post transfection before treatments.
Applicants also determined whether the expression of MyD88 confers resistance that is specific to paclitaxel. Wildtype (wt) A2780 EOC cells (carboplatin sensitive) and A2780 EOC cells transfected with MyD88 were treated with 100 μg/ml carboplatin or 2 μM paclitaxel for 48 hours. Apoptosis was determined by measuring caspase-3/7 activity.

MyD88+ cells = test: Western blot of XIAP, pAkt and total Akt in MyD88+ cells; format: cell-based, human
Text: Twenty μg protein were denatured in sample buffer (2.5% SDS, 10% glycerol, 5% β-mercapto-ethanol, 0.15 M Tris (pH=6.8) and 0.01% bromophenol blue) and subjected to 12% SDS-PAGE as previously described (17). Antibodies used: rabbit anti-TLR-4 (Santa Cruz Biotechnology, Santa Cruz, Calif., 1:1,000), rabbit anti-MyD88 (eBiosciences, San Diego, Calif., 1:1,000), mouse anti-NF-κB (Santa Cruz Biotechnology, 1:1,000), mouse anti-DNA topoisomerase 1 (BD Biosciences, San Jose, Calif., 1:500) and, rabbit anti-actin (Sigma Chemical Co., 1:10,000). Proteins were visualized using enhanced chemiluminescence (Pierce Biotechnology).
TLR-4 ligation through NF-κB and inflammatory molecules promotes cell survival by the induction of the expression of anti-apoptotic proteins (24, 25). The expression of X-linked inhibitor of apoptosis (XIAP), a major inhibitor of caspase-3 and 9, and the expression of Akt has been associated with tumor growth and chemoresistance in ovarian cancer cells (26-28). Therefore, Applicants evaluated the expression of XIAP and phosphorylated Akt (pAkt) following paclitaxel treatment in MyD88^+ cells. […] Similarly, XIAP levels increased 2 h post-treatment. In contrast, no change on the levels of total Akt was observed.

normal OSE cells = test: CASPASE GLO 3/7 apoptosis assay, normal OSE cells; format: cell-based; conditions: 2 μM paclitaxel, 24 h
MyD88+ EOC cells [1] = test: Cytokine microarray (Fast Quant), MyD88+ EOC cells; format: cell-based, human; conditions: 48 h; LPS 10 μg/ml or paclitaxel 20 μM
Description: (§2) A panel of 10 cytokines, pro and anti-inflammatory, was simultaneously evaluated using the Fast Quant Human II kit (Whatman/Schleicher & Schuell) according to the manufacturer instructions. The signal was detected using the Genepix 4000 microarray reader and the results were analyzed using the Genepix 3.0 software (Whatman/Schleicher & Schuell).
(§3) To further characterize the effect of paclitaxel and LPS on the secretion of several cytokines and chemokines in MyD88^+ and MyD88^− EOC cells, Applicants used a high throughput microarray system (Whatman/Schleicher & Schull) to measure the levels of IL-6, IL-4, IL-8, IL-12, RANTES, and IFN-γ. Cytokine secretion was measured in the supernatants of EOC cells following 48 h incubation with either LPS (10 μg/ml) or paclitaxel (20 μM).

MyD88+ EOC cells [2] = test: Cytokine ELISA (GRO-α, MCP-1, IL-6), MyD88+ EOC cells; format: cell-based, human; conditions: increasing concentrations of paclitaxel, 24 h, 48 h, 72 h; dose- and time-dependent, p<0.01
Description: (§4) The concentrations of the IL-6, GRO-α, MCP-1 were evaluated by ELISA, according to the manufacturer's instructions. (R&D Systems, Minneapolis, Minn.)
(§5) EOC cell lines were treated for 48 h with 10 μg/ml LPS and the levels of GRO-α, MCP-1, and IL-6 were determined. […] Unstimulated MyD88^+ EOC cells constitutively express all the cytokines tested. […] In contrast, unstimulated MyD88^− EOC cells secreted undetectable or low levels of these pro-inflammatory cytokines, which were not affected by TLR-4 ligation with LPS.
(§6) MyD88^+ and MyD88^− EOC cells were treated with increasing concentrations of paclitaxel for 24 h, 48 h, and 72 h and levels of IL-6 secretion were determined by ELISA.

MyD88+ EOC cells [3] = test: CASPASE GLO 3/7 apoptosis assay, MyD88+ EOC cells; format: cell-based, human; conditions: 2 μM paclitaxel, 24 h
Description: as §1
(§7) Paclitaxel has been reported to be a potential ligand to TLR-4 (23). […] EOC cells were treated with 2 μM paclitaxel for 24 h and apoptosis was determined by measuring the activity of caspases-3 and -7 using a caspase assay kit CASPASE GLO™ 3/7 Assay.

MyD88- EOC cell lines = test: CASPASE GLO 3/7 apoptosis assay, MyD88- EOC cell lines; format: cell-based, human; conditions: 2 μM paclitaxel, 24 h
Description: as §1, §7

MyD88- EOC cells [4] = test: Cytokine microarray (Fast Quant), MyD88- EOC cells; format: cell-based, human; conditions: 48 h; LPS 10 μg/ml or paclitaxel 20 μM
Description: as §2, §3

MyD88- EOC cells [5] = test: Cytokine ELISA (GRO-α, MCP-1, IL-6), MyD88- EOC cells; format: cell-based, human; conditions: increasing concentrations of paclitaxel, 24 h, 48 h, 72 h
Description: as §4, §5, §6

A2780 and CP70 EOC cells = test: Caspase-3/7 activity in A2780 and CP70 cells, wt or transfected with pUNO-hMyD88; format: cell-based, human; conditions: 48 h
Description: as §1
Transfection was performed using a plasmid containing the full-length cDNA (SEQ ID NO:3) of human MyD88 (pUNO-hMyD88, Invivogen), which encodes the amino acid sequence of SEQ ID NO:4. CP70 and A2780 cells were grown in […] surface tissue culture flasks until they reached 50% confluence. 12 μl of the Fugene 6 Transfection reagent was added into 4 ml of serum-free media for each transfection. […]
Because Applicants observed a positive correlation between MyD88 expression and resistance to paclitaxel-induced apoptosis, their next objective was to determine whether the induction of MyD88 expression in EOC might confer resistance to paclitaxel. […] After 24 h of transfection, the cells were either left untreated or treated with 2 μM paclitaxel for 48 h and caspase-3/7 activity was determined.

MyD88+ R182 EOC cells = test: IL-6 secretion in R182 EOC cells with and without MyD88 RNAi; format: cell-based, human
Description: EOC cells were transiently transfected with a GFP-expressing plasmid containing silencing RNA (siRNA) directed against MyD88 (psiRNA-hMyD88, Invivogen, San Diego, Calif.). Briefly, 1.5×10^5 cells were seeded in 60 mm dishes and cultured overnight until 40-60% confluent. Cells were then transfected for 18 h with 2 μg of DNA using Fugene 6 Transfection reagent (Roche Applied Science, Indianapolis, Ind.). Ratio of Fugene to DNA was 3:1. Following transfection, cells were allowed to recover in growth media for 24 h prior to treatment.
In order to confirm that in MyD88^+ EOC cells, the ligation of TLR-4 by either LPS or paclitaxel induces the production of cytokines, Applicants inhibited its expression in MyD88^+ R182 EOC cells using RNA interference technology. […] These findings confirmed that the cytokine response in EOC cells following LPS and paclitaxel treatment involves signaling through MyD88.

murine macrophages = conditions: cited from earlier work
MyD88+ EOC cells [6] = test: CELLTITER96 cell viability / proliferation assay, MyD88+ EOC cells; format: cell-based, human; conditions: EOC cells that express MyD88
Description: Cell viability was evaluated using a cell proliferation assay, i.e., the CELLTITER96® Aqueous One Solution Cell Proliferation Assay (Promega, Madison, Wis.) according to the manufacturer's instructions. The values from the treated cells were compared with the values generated from the untreated cells and reported as percent viability. Each experiment was performed at least three times.
Once the expression of TLR-4 in EOC samples was established, Applicants evaluated the biological function of this receptor and also evaluated the significance of MyD88 status. EOC cell lines expressing MyD88 (MyD88^+) and those shown to lack MyD88 (MyD88^−) were treated with increasing concentrations of LPS (one of the main ligands for TLR-4) for 24 h and 48 h and cell viability was determined using a cell proliferation assay, i.e., the CELLTITER96® AQueous One Solution Cell Proliferation Assay. […] Thus, LPS induced a time- and dose-dependent increase in cell proliferation in cells expressing MyD88, but not in MyD88− EOC cells. LPS had no effect on viability of OSE cell, which are also negative for MyD88 expression.

N.N.O=C([O-])C1(C(=O)[O-])CCC1.[Pt+2] [carboplatin]
sensitivity (apoptosis by caspase-3/7 activity) (A2780 EOC cells; A2780 transfected with MyD88): retained its sensitivity | caspase-3/7 activity (A2780 EOC cells): significant increase

CC(=O)O[C@H]1C(=O)[C@@]2(C)[C@H]([C@H](OC(=O)c3ccccc3)[C@]3(O)C[C@H](OC(=O)[C@H](O)[C@@H](NC(=O)c4ccccc4)c4ccccc4)C(C)=C1C3(C)C)[C@]1(OC(C)=O)CO[C@@H]1C[C@@H]2O [paclitaxel]
XIAP levels (MyD88+ cells; 2 h post-treatment): increased | phosphorylated Akt (pAkt) (MyD88+ cells; 4 h after treatment): significant increase | levels of total Akt (MyD88+ cells; after paclitaxel treatment): no change | caspase activity (normal OSE cells): Significant increase | secretion of IL-4, IL-12 and IFN-γ (MyD88+ EOC cells [1]): neither MyD88^+ nor MyD88^− EOC cells secreted detectable levels | secretion of IL-6, IL-8 and RANTES (MyD88+ EOC cells [1]): increased secretion | IL-6 production (MyD88+ EOC cells [2]): significant increase | caspase-3/7 activity (MyD88+ EOC cells [3]): no significant change | caspase-3/7 activity (A2780 EOC cells): significant increase | caspase-3/7 activity (MyD88- EOC cell lines): significant increase | secretion of IL-4, IL-12 and IFN-γ (MyD88- EOC cells [4]): neither MyD88^+ nor MyD88^− EOC cells secreted detectable levels | secretion of IL-6, IL-8 or RANTES (MyD88- EOC cells [4]): neither constitutive secretion nor LPS- or paclitaxel-induced | IL-6 levels (MyD88- EOC cells [5]): did not affect | caspase-3/7 activity (A2780 and CP70 EOC cells; cells transfected with pUNO-hMyD88, 2 μM paclitaxel): no changes | caspase-3/7 activity (A2780 and CP70 EOC cells; wt cells, 2 μM paclitaxel): significant increase | IL-6 secretion (MyD88+ R182 EOC cells; R182 cells after inhibition of MyD88 expression by RNAi): decreased IL-6 secretion | IL-6 production (MyD88+ R182 EOC cells; wild type R182 cells, LPS 10 μg/ml or paclitaxel 2 μM): high levels of IL-6 | secretion of inflammatory cytokines, including TNFα, IL-6 and IL-8 (murine macrophages; TLR-4 and MyD88 dependent): induces the secretion of inflammatory cytokines | macrophage activation (murine macrophages; studies by Ding et al): activates murine macrophages | proliferation in culture upon TLR-4 ligation (MyD88+ EOC cells [6]): proliferate in culture
